Reference: patent US20050065140A1, “Serotonine reuptake inhibitor” (priority 2001, published 2005)

Key:
[1] = molecular target: T1, [^3H]paroxetine binding (serotonin reuptake), cerebral cortex membrane preparation (Rattus norvegicus, UniProt P31652); experiment: Screening test using [^3H]paroxetine binding (Test Example 1); details: [^3H]paroxetine 0.15 nM, test concentration not given
T1 construct: 790 μl of the cerebral cortex membrane preparation (150 μg/tube in terms of protein); from tissue; host or cells: rat cerebral cortex membrane preparation
Experimental: Screening Test Using [^3H]Paroxetine Binding
The membrane preparation was prepared according to the method^1a) of D'amato et al. In detail, after a male rat was decapitated, the whole brain was immediately removed and the cerebral cortex was dissected therefrom under ice-cooling. A buffer solution (50 mM Tris-HCl (pH=7.4), 120 mM NaCl, 5 mM KCl) was added to the cerebral cortex in an amount of 25 times the wet weight of the cerebral cortex, followed by homogenization in an ice bath by the use of a Teflon-glass homogenizer. The homogenate was centrifuged at 4° C. and 45,000×g for 10 minutes, and the resulting precipitate was dispersed in an ice-cooled buffer solution (50 mM Tris-HCl (pH=7.4), 120 mM NaCl, 5 mM KCl) by the use of Hiscotron™, followed by centrifugation at 4° C. and 45,000×g for 10 minutes. The resulting precipitate was re-suspended and the washing procedure was repeated. The membrane preparation thus obtained was suspended in the same buffer solution as described above, and then subjected to cryopreservation at −80° C.
[^3H]paroxetine binding was measured according to the method^1b) of Habert E et al. In detail, 200 μl of a dilution (final concentration: 0.15 nM) of [^3H]paroxetine with 50 mM Tris-HCl (pH=7.4) buffer containing 120 mM NaCl and 5 mM KCl, 790 μl of the cerebral cortex membrane preparation (150 μg/tube in terms of protein), 10 μl of a solution of a test drug in dimethyl sulfoxide and 1 ml of the above-mentioned buffer solution were mixed to prepare a liquid having a total volume of 2 ml. After this liquid was allowed to react at room temperature for 60 minutes, it was immediately filtered by suction at a low pressure through glass fiber filter. The glass fiber filter was washed 4 times with 4 ml of the same buffer solution as above and then transferred to a glass vial containing 4 ml of ACS-II (Amersham), and the radioactivity remaining on the filter was measured with a liquid scintillation counter.
Non-specific binding of [^3H]paroxetine was defined as the amount of [^3H]paroxetine bound in the presence of 100 μM 5-HT.
(§1) Rate of binding inhibition was calculated by the following equation:
(§2) Rate of binding inhibition (%)=100−100×{[amount of [^3H]paroxetine bound in the presence of test substance]−[amount of [^3H]paroxetine bound in the presence of 100 μM 5-HT]/[amount of [^3H]paroxetine bound in the absence of test substance]−[amount of [^3H]paroxetine bound in the presence of 100 μM 5-HT]}

[2] = molecular target: T2, serotonin 1A receptors ([^3H]8-OH-DPAT binding, hippocampus membrane preparation) (Rattus norvegicus, UniProt P19327); experiment: [^3H]8-OH-DPAT binding test (Test Example 2); details: [^3H]8-OH-DPAT 2 nM, test concentration not given
T2 construct: 146 μl of the hippocampus membrane preparation (80 μg/tube in terms of protein); from tissue; host or cells: rat hippocampus membrane preparation
T2 sequence (P19327 1-422): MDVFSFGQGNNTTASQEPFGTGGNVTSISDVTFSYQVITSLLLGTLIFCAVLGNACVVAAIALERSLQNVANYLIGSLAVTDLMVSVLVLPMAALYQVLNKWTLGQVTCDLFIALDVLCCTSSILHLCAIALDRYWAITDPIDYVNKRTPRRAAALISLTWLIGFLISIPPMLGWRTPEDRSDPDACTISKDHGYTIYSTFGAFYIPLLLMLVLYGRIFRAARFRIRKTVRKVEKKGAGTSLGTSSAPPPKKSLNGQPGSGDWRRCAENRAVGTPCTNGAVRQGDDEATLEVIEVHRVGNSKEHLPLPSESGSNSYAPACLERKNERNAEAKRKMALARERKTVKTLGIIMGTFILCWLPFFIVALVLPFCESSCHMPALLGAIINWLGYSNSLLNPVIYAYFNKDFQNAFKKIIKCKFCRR
Experimental: [^3H]8-OH-DPAT Binding Test
The test was carried out according to the method^2 of Hall M. D. et al. After about one week of pre-breeding, a male rat was decapitated and the brain was immediately removed. The hippocampus was dissected from the brain on ice, and 50 mM Tris-HCl (pH=7.4) was added to the hippocampus in an amount of 40 times the wet weight of the hippocampus, followed by homogenization (3 min, 1 stroke/min) in an ice bath by the use of a Teflon-glass homogenizer. Then, the homogenate was centrifuged (4° C.) at 40,000×g for 10 minutes. The resulting precipitate was dispersed in an ice-cooled buffer solution (50 mM Tris-HCl (pH=7.4)) by the use of Hiscotron™, followed by centrifugation (4° C.) at 40,000×g for 10 minutes. Moreover, the resulting precipitate was re-suspended and the washing procedure was repeated once. The precipitate thus obtained was dispersed in an ice-cooled buffer solution (50 mM Tris-HCl (pH=7.4)) by the use of Hiscotron™, and the resulting dispersion was incubated at 37° C. for 1 hour and then centrifuged (4° C.) at 40,000×g for 10 minutes. Furthermore, the resulting precipitate was re-suspended and the washing procedure was repeated once. The membrane preparation thus obtained was suspended in the same buffer solution as described above, and then subjected to cryopreservation at −80° C.
Measurement was carried out by using a liquid for reaction (total volume: 200 μl) obtained by adding 50 μl of [^3H]8-OH-DPAT (final concentration: 2 nM), 4 μl of a solution of a test drug and 146 μl of the hippocampus membrane preparation (80 μg/tube in terms of protein) to a buffer solution containing 50 mM Tris-HCl (pH=7.4) and 4 mM CaCl2. After the liquid for reaction was allowed to react at room temperature for 30 minutes, it was immediately filtered by suction at a low pressure through glass fiber filter. The glass fiber filter was washed twice with 250 μl of a buffer solution and then added to a glass vial containing 4 ml of ACS-II (Amersham), and the radioactivity bound to receptors and remaining on the filter was measured with a liquid scintillation counter. Non-specific binding of [^3H]8-OH-DPAT was defined as the amount of [^3H]8-OH-DPAT bound in the presence of 1 μM 8-OH-DPAT.
as §1
as §2, with “of [^3H]8-OH-DPAT” for “of [^3H]paroxetine”, “of 1” for “of 100”, “μM 8-OH-DPAT]/[amount” for “μM 5-HT]/[amount”, “μM 8-OH-DPAT]}” for “μM 5-HT]}”

T1 sequence (P31652 whole entry): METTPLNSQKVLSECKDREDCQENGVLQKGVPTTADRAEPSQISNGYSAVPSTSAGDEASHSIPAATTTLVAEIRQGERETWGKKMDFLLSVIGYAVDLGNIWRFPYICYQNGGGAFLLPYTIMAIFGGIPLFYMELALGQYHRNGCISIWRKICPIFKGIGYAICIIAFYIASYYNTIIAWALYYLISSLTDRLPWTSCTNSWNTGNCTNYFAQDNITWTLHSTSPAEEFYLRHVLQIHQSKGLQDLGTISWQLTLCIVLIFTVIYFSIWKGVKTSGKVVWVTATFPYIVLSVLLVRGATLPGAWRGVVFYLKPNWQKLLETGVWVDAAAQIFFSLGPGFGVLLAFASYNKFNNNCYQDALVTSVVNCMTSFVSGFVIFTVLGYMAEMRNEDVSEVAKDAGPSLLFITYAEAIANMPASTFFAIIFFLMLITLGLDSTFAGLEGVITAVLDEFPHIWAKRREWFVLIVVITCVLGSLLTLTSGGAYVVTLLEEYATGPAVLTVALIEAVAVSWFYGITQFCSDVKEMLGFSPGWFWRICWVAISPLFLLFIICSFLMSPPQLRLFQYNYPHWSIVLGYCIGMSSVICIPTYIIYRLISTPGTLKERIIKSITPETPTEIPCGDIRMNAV

| SMILES | Rate of inhibition of [^3H]paroxetine binding (%) [1] [%] | Rate of inhibition of [^3H]8-OH-DPAT binding (%) [2] [%] | melting point [°C] |
| --- | --- | --- | --- |
| COc1ccc(N2CC(CN3CCC(Cc4cc(OC)ccc4Br)CC3)OC2=O)cc1.Cl (stereo not drawn) [Example 72, 5-(4-(2-Bromo-5-methoxybenzyl)piperidin-1-yl)methyl-3-(4-methoxyphenyl)oxazolidin-2-one hydrochloride] | 99 | 97 | – |
| CO[C@H]1CC[C@@H](CCCN2CCC(Cc3cc(OC(C)C)ccc3Br)CC2)CC1.Cl | – | – | 134 |
| COCC(=O)N[C@H]1CC[C@H](CCN2CCC(Cc3cc(OC)ccc3Br)CC2)CC1.Cl | – | – | 132 |
| CCN[C@H]1CC[C@@H](CCN2CCC(Cc3cc(OC(C)C)ccc3Br)CC2)CC1.Cl.Cl [Example 41, cis-N-(4-(2-(4-(2-bromo-5-isopropoxybenzyl)-piperidin-1-yl)ethyl)cyclohexyl)-N-ethylamine Dihydrochloride] | 78 | 86 | 247 |
| COc1ccc(Br)c(CC2CCN(CCC3(CCO)CCCC3)CC2)c1.Cl | – | – | 184 |
| CCN(CC)[C@H]1CC[C@H](CCN2CCC(Cc3cc(OC(C)C)ccc3Br)CC2)CC1.Cl.Cl | – | – | 253 |
| CCNC(=O)N1CCC(CCN2CCC(Cc3cc(OC)ccc3Br)CC2)CC1.Cl [Example 32] | 97 | 73 | – |
| Cl.Cl.Fc1ccc(Br)c(CC2CCN(CC3CCc4ccccc4N3)CC2)c1 (stereo not drawn) | – | – | 245 |
| CCN[C@H]1CC[C@@H](CCCN2CCC(Cc3cc(OC)ccc3Br)CC2)CC1.Cl.Cl | – | – | 234 |
| CCN(C(C)=O)[C@H]1CC[C@H](CCN2CCC(Cc3cc(OC(C)C)ccc3Br)CC2)CC1.Cl [Example 52, trans-N-(4-(2-(4-(2-bromo-5-isopropoxy-benzyl)piperidin-1-yl)ethyl)cyclohexyl)-N-ethylacetamide Hydrochloride] | 90 | 60 | – |
| CCN(CCO)[C@H]1CC[C@H](CCN2CCC(Cc3cc(OC)ccc3Br)CC2)CC1.Cl.Cl | – | – | 259 |
| CCOc1ccc(Br)c(CC2CCN(CC3CCc4ccccc4N3)CC2)c1.Cl.Cl (stereo not drawn) | – | – | 228 |
| CCN(CC(F)(F)F)[C@H]1CC[C@H](CCN2CCC(Cc3cc(OC)ccc3Br)CC2)CC1.Cl.Cl | – | – | 209 |
| COc1ccc(Br)c(CC2CCN(CC[C@H]3CC[C@@H](CO)CC3)CC2)c1.Cl | – | – | 209 |
| CCN[C@H]1CC[C@H](CCN2CCC(Cc3cc(OC(C)C)ccc3Br)CC2)CC1.Cl.Cl | – | – | 290 |
| COc1ccc(Br)c(CC2CCN(CC[C@H]3CC[C@@H](CCO)CC3)CC2)c1.Cl [Example 63] | – | – | 172 |
| COc1ccc(Br)c(CC2CCN(CCC3CCNCC3)CC2)c1.Cl.Cl [Example 1, 4-(2-Bromo-5-methoxybenzyl)-1-(2-(4-piperidinyl)ethyl)piperidine Dihydrochloride] | 81 | 47 | – |
| COc1ccc(Br)c(CC2CCN(CCC[C@H]3CC[C@@H](N)CC3)CC2)c1.Cl.Cl | – | – | 238 |
| COc1ccc(Br)c(CC2CCN(CCC3(CCO)CCCCC3)CC2)c1.Cl [Example 60, 2-(1-(2-(4-(2-Bromo-5-methoxybenzyl)-piperidin-1-yl)ethyl)cyclohexyl)ethanol Hydrochloride] | 91 | 98 | – |
| CCN(CC)[C@H]1CC[C@H](CCN2CCC(Cc3cc(OC)ccc3Br)CC2)CC1.Cl.Cl | – | – | 242 |
